Laboratory results reported in PubChem BioAssay AID248 (DTP/NCI, 2004).
Values joined by “and” are separate entries in the source; they are usually repeats but may differ in a detail not shown here. Equal values may be shown once. Inconclusive results and toxic doses are left out. Rule as the data show it: active = T/C of 150% or more; inactive = T/C below 125%.

Test system: L1210 leukemia ip in BDF1 mice, survival T/C
Assay: NCI In Vivo Anticancer Drug Screen. Data for tumor model L1210 Leukemia (intraperitoneal) in B6D2F1 (BDF1) mice
Settings: higher = longer survival
Method in brief: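 Transplanted-tumor mice were given test agent; controls received vehicle only. Survival readings from the two groups were divided (treated over control).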

[1] = endpoint: mean survival time, dose: 100.0 mg/kg/injection, schedule: Q04DX002 (ip), vehicle: Klucel (hydroxypropylcellulose) (HPC)
[2] = endpoint: mean survival time, dose: 200.0 mg/kg/injection, schedule: Q04DX002 (ip), vehicle: Klucel (hydroxypropylcellulose) (HPC)
[3] = endpoint: mean survival time, dose: 50.0 mg/kg/injection, schedule: Q01DX001 (ip), vehicle: carboxymethylcellulose (CMC)
[4] = endpoint: mean survival time, dose: 100.0 mg/kg/injection, schedule: Q01DX001 (ip), vehicle: carboxymethylcellulose (CMC)
[5] = endpoint: mean survival time, dose: 200.0 mg/kg/injection, schedule: Q01DX001 (ip), vehicle: carboxymethylcellulose (CMC)
[6] = endpoint: mean survival time, dose: 400.0 mg/kg/injection, schedule: Q01DX001 (ip), vehicle: carboxymethylcellulose (CMC)
[7] = endpoint: mean survival time, dose: 50.0 mg/kg/injection, schedule: Q01DX009 (ip), vehicle: saline with Tween-80
[8] = endpoint: mean survival time, dose: 100.0 mg/kg/injection, schedule: Q01DX009 (ip), vehicle: saline with Tween-80
[9] = endpoint: mean survival time, dose: 100.0 mg/kg/injection, schedule: Q04DX003 (ip), vehicle: Klucel (hydroxypropylcellulose) (HPC)
[10] = endpoint: mean survival time, dose: 400.0 mg/kg/injection, schedule: Q04DX003 (ip), vehicle: Klucel (hydroxypropylcellulose) (HPC)
[11] = endpoint: mean survival time, dose: 100.0 mg/kg/injection, schedule: Q01DX001 (ip), vehicle: Klucel (hydroxypropylcellulose) (HPC)
[12] = endpoint: mean survival time, dose: 200.0 mg/kg/injection, schedule: Q01DX001 (ip), vehicle: Klucel (hydroxypropylcellulose) (HPC)
[13] = endpoint: mean survival time, dose: 400.0 mg/kg/injection, schedule: Q01DX001 (ip), vehicle: Klucel (hydroxypropylcellulose) (HPC)
[14] = endpoint: mean survival time, dose: 100.0 mg/kg/injection, schedule: Q04DX003 (ip), vehicle: saline with Tween-80
[15] = endpoint: mean survival time, dose: 200.0 mg/kg/injection, schedule: Q01DX009 (ip), vehicle: saline with Tween-80
[16] = endpoint: mean survival time, dose: 200.0 mg/kg/injection, schedule: Q04DX003 (ip), vehicle: saline with Tween-80
[17] = endpoint: mean survival time, dose: 400.0 mg/kg/injection, schedule: Q01DX009 (ip), vehicle: saline with Tween-80
[18] = endpoint: mean survival time, dose: 400.0 mg/kg/injection, schedule: Q04DX003 (ip), vehicle: saline with Tween-80
[19] = endpoint: mean survival time, dose: 100.0 mg/kg/injection, schedule: Q04DX003 (ip), vehicle: saline
[20] = endpoint: mean survival time, dose: 200.0 mg/kg/injection, schedule: Q04DX003 (ip), vehicle: saline
[21] = endpoint: mean survival time, dose: 400.0 mg/kg/injection, schedule: Q04DX003 (ip), vehicle: saline
[22] = endpoint: mean survival time, dose: 100.0 mg/kg/injection, schedule: Q01DX001 (ip), vehicle: saline
[23] = endpoint: mean survival time, dose: 200.0 mg/kg/injection, schedule: Q01DX001 (ip), vehicle: saline
[24] = endpoint: mean survival time, dose: 400.0 mg/kg/injection, schedule: Q01DX001 (ip), vehicle: saline
[25] = endpoint: mean survival time, dose: 400.0 mg/kg/injection, schedule: Q04DX002 (ip), vehicle: Klucel (hydroxypropylcellulose) (HPC)

Measured: T/C

CCCCCCCCP(C)(=O)CCCCCCCC
inactive: [1] 105 % of control | [2] 102 % of control

CCOC(=O)c1oc2cc(O)cc(C)c2c1C
inactive: [3] 97 % of control | [4] 100 % of control | [5] 94 % of control | [6] 94 % of control

CC(C)c1cccc(OS(=O)(=O)c2ccccc2[N+](=O)[O-])c1
inactive: endpoint: mean survival time, dose: 25.0 mg/kg/injection, schedule: Q01DX009 (ip), vehicle: saline with Tween-80 105 % of control | [7] 105 % of control | [8] 105 % of control | [9] 93 % of control | [10] 96 % of control

O=C1OCCN1C(=O)c1ccc(C(=O)N2CCOC2=O)cc1
inactive: [11] 94 % of control | endpoint: mean survival time, dose: 100.0 mg/kg/injection, schedule: Q01DX007 (ip), vehicle: Klucel (hydroxypropylcellulose) (HPC) 89 % of control | [9] 97 % of control | [12] 87 % of control | endpoint: mean survival time, dose: 200.0 mg/kg/injection, schedule: Q01DX007 (ip), vehicle: Klucel (hydroxypropylcellulose) (HPC) 92 % of control | endpoint: mean survival time, dose: 200.0 mg/kg/injection, schedule: Q04DX003 (ip), vehicle: Klucel (hydroxypropylcellulose) (HPC) 101 % of control | [13] 92 % of control | endpoint: mean survival time, dose: 400.0 mg/kg/injection, schedule: Q01DX007 (ip), vehicle: Klucel (hydroxypropylcellulose) (HPC) 90 % of control | [10] 95 % of control

Cc1ccc(Cl)c(I)c1
inactive: endpoint: mean survival time, dose: 100.0 mg/kg/injection, schedule: Q04DX002 (ip), vehicle: saline 103 % of control | endpoint: mean survival time, dose: 200.0 mg/kg/injection, schedule: Q04DX002 (ip), vehicle: saline 103 % of control | endpoint: mean survival time, dose: 400.0 mg/kg/injection, schedule: Q04DX002 (ip), vehicle: saline 95 % of control

c1ccc(-c2nnc3oc(-c4ccco4)nn23)cc1
inactive: [8] 100 % of control | [14] 96 % of control | [15] 101 % of control | [16] 102 % of control | [17] 101 % of control | [18] 94 % of control

Cc1ccc(S(=O)(=O)Nc2cc(C)cc(CCN)c2C)cc1
inactive: [3] 98 % of control | [4] 101 % of control | [5] 98 % of control | [6] 93 % of control

CCN(C(=S)c1ccc(OC)cc1)c1cccc(C)c1
inactive: endpoint: mean survival time, dose: 75.0 mg/kg/injection, schedule: Q04DX003 (ip), vehicle: Klucel (hydroxypropylcellulose) (HPC) 94 % of control | [11] 103 % of control | endpoint: mean survival time, dose: 150.0 mg/kg/injection, schedule: Q04DX003 (ip), vehicle: Klucel (hydroxypropylcellulose) (HPC) 111 % of control | [12] 97 % of control | endpoint: mean survival time, dose: 300.0 mg/kg/injection, schedule: Q04DX003 (ip), vehicle: Klucel (hydroxypropylcellulose) (HPC) 100 % of control | [13] 96 % of control

CCCCC(CC)(CCN)CCCC
inactive: endpoint: mean survival time, dose: 5.0 mg/kg/injection, schedule: Q01DX001 (ip), vehicle: carboxymethylcellulose (CMC) 102 % of control | endpoint: mean survival time, dose: 10.0 mg/kg/injection, schedule: Q01DX001 (ip), vehicle: carboxymethylcellulose (CMC) 104 % of control | endpoint: mean survival time, dose: 20.0 mg/kg/injection, schedule: Q01DX001 (ip), vehicle: carboxymethylcellulose (CMC) 91 % of control

CCOC(=O)CCCc1ccccc1
inactive: [14] 107 % of control | [16] 90 % of control | [18] 93 % of control

C[n+]1ccc(Nc2ccc(NC(=O)c3ccc(N)cc3[N+](=O)[O-])cc2)cc1
inactive: endpoint: mean survival time, dose: 25.0 mg/kg/injection, schedule: Q01DX001 (ip), vehicle: saline with Tween-80 93 % of control and 107 % of control | endpoint: mean survival time, dose: 50.0 mg/kg/injection, schedule: Q01DX001 (ip), vehicle: saline with Tween-80 97 % of control | endpoint: mean survival time, dose: 100.0 mg/kg/injection, schedule: Q04DX002 (ip), vehicle: saline with Tween-80 108 % of control and 117 % of control | endpoint: mean survival time, dose: 200.0 mg/kg/injection, schedule: Q04DX002 (ip), vehicle: saline with Tween-80 94 % of control and 101 % of control | endpoint: mean survival time, dose: 400.0 mg/kg/injection, schedule: Q01DX001 (ip), vehicle: saline with Tween-80 104 % of control and 91 % of control | endpoint: mean survival time, dose: 400.0 mg/kg/injection, schedule: Q04DX002 (ip), vehicle: saline with Tween-80 103 % of control and 114 % of control

CC/C=C(CC)/C(CC)=C(/C#N)CC
inactive: [19] 108 % of control | [20] 93 % of control | [21] 98 % of control

O=C1C(Cl)=C(N2CC2)C(=O)c2ccccc21
inactive: endpoint: mean survival time, dose: 2.5 mg/kg/injection, schedule: Q01DX009 (ip), vehicle: Klucel (hydroxypropylcellulose) (HPC) 107 % of control | endpoint: mean survival time, dose: 5.0 mg/kg/injection, schedule: Q01DX009 (ip), vehicle: Klucel (hydroxypropylcellulose) (HPC) 93 % of control

CCC(CCC(C)C1CCC2C3CC=C4CC(OC(=O)CCC(=O)O)CCC4(C)C3CCC12C)C(C)C (centres undefined)
inactive: [8] 101 % of control | [15] 96 % of control | [17] 92 % of control

Cc1nc2cccc3ccc4c5ccccc5cc1c4c32
inactive: [14] 92 % of control | [16] 92 % of control | [18] 87 % of control

COc1ccc(CCN=Cc2ccc3c(c2)Cc2ccccc2-3)cc1OC
inactive: [19] 105 % of control | [20] 108 % of control | [21] 90 % of control

NC(=O)C(CCO)n1ccc(N)nc1=O (centres undefined)
inactive: [22] 94 % of control | [23] 98 % of control | [24] 102 % of control

Cc1ccn2c(=O)cc(O)nc2c1
inactive: endpoint: mean survival time, dose: 50.0 mg/kg/injection, schedule: Q01DX001 (ip), vehicle: saline 101 % of control | [22] 98 % of control | [23] 92 % of control | [24] 98 % of control

O=C(NC1CCCC1)c1ccc(C(=O)NC2CCCC2)cc1
inactive: [22] 91 % of control | [23] 91 % of control

CCOc1ccccc1NC(=S)Nc1ccc([N+](=O)[O-])cc1
inactive: [7] 92 % of control | [8] 92 % of control | [15] 95 % of control

Cl
inactive: endpoint: mean survival time, dose: 50.0 mg/kg/injection, schedule: Q01DX009 (oral), vehicle: water 97 % of control | endpoint: median survival time, dose: 15.0 mg/kg/injection, schedule: Q01DX009 (ip), vehicle: water 87 % of control | endpoint: median survival time, dose: 30.0 mg/kg/injection, schedule: Q01DX009 (ip), vehicle: water 100 % of control | endpoint: median survival time, dose: 60.0 mg/kg/injection, schedule: Q01DX009 (ip), vehicle: water 112 % of control | endpoint: median survival time, dose: 90.0 mg/kg/injection, schedule: Q01DX009 (ip), vehicle: water 112 % of control

O=C1N(c2ccccc2)C(c2ccncc2)C1(c1ccccc1)c1ccccc1 (centres undefined)
inactive: endpoint: mean survival time, dose: 87.5 mg/kg/injection, schedule: Q04DX003 (ip), vehicle: gum acacia 91 % of control | endpoint: mean survival time, dose: 175.0 mg/kg/injection, schedule: Q04DX003 (ip), vehicle: gum acacia 91 % of control | endpoint: mean survival time, dose: 350.0 mg/kg/injection, schedule: Q04DX003 (ip), vehicle: gum acacia 91 % of control

CCOc1ccc(Cl)cc1
inactive: endpoint: mean survival time, dose: 75.0 mg/kg/injection, schedule: Q01DX009 (ip), vehicle: Klucel (hydroxypropylcellulose) (HPC) 117 % of control | [8] 108 % of control | [1] 100 % of control | endpoint: mean survival time, dose: 150.0 mg/kg/injection, schedule: Q01DX009 (ip), vehicle: Klucel (hydroxypropylcellulose) (HPC) 93 % of control | [15] 106 % of control | [2] 103 % of control | endpoint: mean survival time, dose: 300.0 mg/kg/injection, schedule: Q01DX009 (ip), vehicle: Klucel (hydroxypropylcellulose) (HPC) 96 % of control | [25] 92 % of control

Cc1cccc(C)c1OC(=O)Nc1ccccc1Cl
inactive: [1] 95 % of control | [2] 106 % of control | [25] 103 % of control

NNC(=O)c1c[nH]c2ccccc2c1=O
inactive: endpoint: mean survival time, dose: 12.5 mg/kg/injection, schedule: Q01DX009 (ip), vehicle: Klucel (hydroxypropylcellulose) (HPC) 95 % of control | endpoint: mean survival time, dose: 25.0 mg/kg/injection, schedule: Q01DX009 (ip), vehicle: Klucel (hydroxypropylcellulose) (HPC) 90 % of control | endpoint: mean survival time, dose: 50.0 mg/kg/injection, schedule: Q01DX009 (ip), vehicle: Klucel (hydroxypropylcellulose) (HPC) 94 % of control
